Assay results published in US8785460B2, “Tricyclic compounds and use thereof” (Takeda Pharmaceutical Company Limited, priority 2008, dated 2014).
Counter-ions that a name gives are not always drawn.

The compounds below were run against T1, human CRF1 receptor (Homo sapiens, UniProt P34998) (assay: Measurement of CRF Binding Inhibitory Rate (receptor binding experiment with 125I-CRF)). Settings: human CRF1 receptor expressing CHO cellular membrane fraction, 50 pM 125I-CRF, room temperature 1.5 hr, 0.05 nM to 10 μM of compound; read-out: IC50 values (CRF binding inhibition).
T1 construct: expressed in transfected cells; host or cells: CHO cells (membrane fraction)
T1 sequence (P34998 24-415): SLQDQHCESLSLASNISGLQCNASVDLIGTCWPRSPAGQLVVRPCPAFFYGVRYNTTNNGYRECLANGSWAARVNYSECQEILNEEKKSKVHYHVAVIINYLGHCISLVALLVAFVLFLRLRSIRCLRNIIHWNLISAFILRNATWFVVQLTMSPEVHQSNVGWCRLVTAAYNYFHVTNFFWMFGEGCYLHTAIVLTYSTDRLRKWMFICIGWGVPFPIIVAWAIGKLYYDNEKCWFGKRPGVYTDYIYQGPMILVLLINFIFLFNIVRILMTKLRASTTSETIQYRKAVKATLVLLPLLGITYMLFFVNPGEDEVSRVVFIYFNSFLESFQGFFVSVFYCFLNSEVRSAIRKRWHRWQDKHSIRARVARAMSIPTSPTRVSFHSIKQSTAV
Procedure: Measurement of CRF Binding Inhibitory Rate
A receptor binding experiment was carried out using a human CRF1 receptor expressing CHO cellular membrane fraction and ovine CRF, [^125I]-tyr^0(^125I-CRF). 1000 nM of a test compound was incubated with 1 μg of human CREF receptor expressing CHO cellular membrane fraction and 50 pM of ^125I-CRF in a binding assay buffer (50 mM Tris-HCl, 5 mM EDTA, 10 mM MgCl2, 0.05% CHAPS, 0.1% BSA, 0.5 mM PMSF, 0.1 μg/mL pepstatin, 20 μg/mL leupeptin, pH 7.5). In addition, for measuring nonspecific binding (NSB), 0.1 μM unlabelled human Urocortin was incubated with 5 μg of human CRE receptor expressing CHO cellular membrane fraction and 50 pM of ^125I-CRF in a binding assay buffer. After a binding reaction was carried out at room temperature for 1.5 hr, the membrane was entrapped on a glass filter (UniFilter plate GF-C/Perkin Elmer) by suction filtration using a cell harvester (Perkin Elmer), and washed with ice-cooled 50 mM Tris-HCl (pH 7.5). After drying the glass filter, a liquid scintillation cocktail (Microscinti 0, Perkin Elmer) was added, and the radioactivity of ^125I-CRF remaining on a glass filter was measured using Topcount (Perkin Elmer).
(TB−SB)/(TB−NSB)×100 (SB: radioactivity when a compound is added, TB: maximum binding radioactivity, NSB: nonspecific binding radioactivity) were calculated to obtain binding inhibitory rates under the range of the presence from 0.05 nM to 10 μM of each compound. The IC50 values were calculated by using GraphPad Prism software.

SMILES | IC50 [nM]
CCN(CC)c1cccc2nc3n(c12)CCCOC3c1ccc(Cl)cc1Cl (single isomer, unassigned) [Example 485, 1-(2,4-Dichlorophenyl)-N,N-diethyl-4,5-dihydro-1H,3H-[1,4]oxazepino[4,3-a]benzimidazol-7-amine] | < 1000
CCC(OC(C)=O)c1ccc(Cl)c2nc3n(c12)CCCN3c1ccc(Cl)cc1Cl (single isomer, unassigned; (-)) [Example 239, (−)-1-[9-Chloro-1-(2,4-dichlorophenyl)-1,2,3,4-tetrahydropyrimido[1,2-a]benzimidazol-6-yl]propyl acetate] | < 1000
CCC(OC(C)=O)c1ccc(Cl)c2nc3n(c12)CCCN3c1ccc(OC)nc1C (single isomer, unassigned; (-)) [Example 266, (−)-1-[9-Chloro-1-(6-methoxy-2-methylpyridin-3-yl)-1,2,3,4-tetrahydropyrimido[1,2-a]benzimidazol-6-yl]propyl acetate] | < 1000
CCC(CC)c1ccc(Cl)c2nc3n(c12)CCN3c1c(C)cc(Cl)cc1OC [Example 1, 8-Chloro-1-(4-chloro-2-methoxy-6-methylphenyl)-5-(1-ethylpropyl)-2,3-dihydro-1H-imidazo[1,2-a]benzimidazole] | < 1000
CCC(CC)c1ccc(Cl)c2nc3n(c12)CC(=O)N3c1c(C)cc(Cl)cc1OC [Example 2, 8-Chloro-1-(4-chloro-2-methoxy-6-methylphenyl)-5-(1-ethylpropyl)-1H-imidazo[1,2-a]benzimidazol-2(3H)-one] | < 1000
CCC(CC)c1ccc(Cl)c2nc3n(c12)CCN3c1ccc(Cl)cc1C=O [Example 6, 5-Chloro-2-[8-chloro-5-(1-ethylpropyl)-2,3-dihydro-1H-imidazo[1,2-a]benzimidazol-1-yl]benzaldehyde] | < 1000
CCC(CC)c1ccc(Cl)c2nc3n(c12)CCN3c1ccc(Cl)cc1CN(C)C [Example 8, 1-{5-Chloro-2-[8-chloro-5-(1-ethylpropyl)-2,3-dihydro-1H-imidazo[1,2-a]benzimidazol-1-yl]phenyl}-N,N-dimethylmethanamine] | < 1000
CCC(CC)c1ccc(Cl)c2nc3n(c12)CC(=O)N3c1cnc(N(C)C)cc1C [Example 9, 8-Chloro-1-[6-(dimethylamino)-4-methylpyridin-3-yl]-5-(1-ethylpropyl)-1H-imidazo[1,2-a]benzimidazol-2(3H)-one] | < 1000
CCC(CC)c1ccc(Cl)c2nc3n(-c4c(C)cc(Cl)cc4OC)c(Cl)cn3c12 [Example 10, 2,8-Dichloro-1-(4-chloro-2-methoxy-6-methylphenyl)-5-(1-ethylpropyl)-1H-imidazo[1,2-a]benzimidazole] | < 1000
CCC(CC)c1ccc(Cl)c2nc3n(c12)CCN3c1ccccc1Cl [Example 13, 8-Chloro-1-(2-chlorophenyl)-5-(1-ethylpropyl)-2,3-dihydro-1H-imidazo[1,2-a]benzimidazole] | < 1000
CCC(CC)c1ccc(Cl)c2nc3n(c12)CCN3c1ccc(C=O)cc1Cl [Example 16, 3-Chloro-4-[8-chloro-5-(1-ethylpropyl)-2,3-dihydro-1H-imidazo[1,2-a]benzimidazol-1-yl]benzaldehyde] | < 1000
CCC(CC)c1ccc(Cl)c2nc3n(c12)CCN3c1ccc(Cl)cc1C#N [Example 18, 5-Chloro-2-[8-chloro-5-(1-ethylpropyl)-2,3-dihydro-1H-imidazo[1,2-a]benzimidazol-1-yl]benzonitrile] | < 1000
CCC(CC)c1ccc(Cl)c2nc3n(c12)CCCCN3c1c(C)nn(C)c1C [Example 24, 10-Chloro-7-(1-ethylpropyl)-1-(1,3,5-trimethyl-1H-pyrazol-4-yl)-2,3,4,5-tetrahydro-1H-[1,3]diazepino[1,2-a]benzimidazole] | < 1000
CCC(CC)c1ccc(Cl)c2nc3n(c12)CCCCN3c1ccc(C)cc1 [Example 32, 10-Chloro-7-(1-ethylpropyl)-1-(4-methylphenyl)-2,3,4,5-tetrahydro-1H-[1,3]diazepino[1,2-a]benzimidazole] | < 1000
CCC(CC)c1ccc(Cl)c2nc3n(c12)CCCCN3c1ccc(C)cc1CO [Example 33, {2-[10-Chloro-7-(1-ethylpropyl)-2,3,4,5-tetrahydro-1H-[1,3]diazepino[1,2-a]benzimidazol-1-yl]-5-methylphenyl}methanol] | < 1000
CCC(CC)c1ccc(Cl)c2nc3n(c12)CCCCN3c1ccc(C)cc1C=O [Example 34, 2-[10-Chloro-7-(1-ethylpropyl)-2,3,4,5-tetrahydro-1H-[1,3]diazepino[1,2-a]benzimidazol-1-yl]-5-methylbenzaldehyde] | < 1000
CCC(CC)c1ccc(Cl)c2nc3n(c12)CCCCN3c1ccc(C)cc1CN(C)C [Example 35, 1-{2-[10-Chloro-7-(1-ethylpropyl)-2,3,4,5-tetrahydro-1H-[1,3]diazepino[1,2-a]benzimidazol-1-yl]-5-methylphenyl}-N,N-dimethylmethanamine hydrochloride] | < 1000
CCC(CC)c1ccc(Cl)c2nc3n(c12)CCCCN3c1ccc(OC(F)(F)F)cc1 [Example 40, 10-Chloro-7-(1-ethylpropyl)-1-[4-(trifluoromethoxy)phenyl]-2,3,4,5-tetrahydro-1H-[1,3]diazepino[1,2-a]benzimidazole] | < 1000
CCC(CC)c1ccc(Cl)c2nc3n(c12)CCCCN3c1ccc(OC(F)(F)F)cc1C=O [Example 41, 2-[10-Chloro-7-(1-ethylpropyl)-2,3,4,5-tetrahydro-1H-[1,3]diazepino[1,2-a]benzimidazol-1-yl]-5-(trifluoromethoxy)benzaldehyde] | < 1000
CCC(CC)c1ccc(Cl)c2nc3n(c12)CCCCN3c1ccc(OC(F)(F)F)cc1CN(C)C [Example 42, 1-[2-[10-Chloro-7-(1-ethylpropyl)-2,3,4,5-tetrahydro-1H-[1,3]diazepino[1,2-a]benzimidazol-1-yl]-5-(trifluoromethoxy)phenyl]-N,N-dimethylmethanamine hydrochloride] | < 1000
CCC(CC)c1ccc(Cl)c2nc3n(c12)CCCCN3c1ccc(Br)cc1C [Example 43, 1-(4-Bromo-2-methylphenyl)-10-chloro-7-(1-ethylpropyl)-2,3,4,5-tetrahydro-1H-[1,3]diazepino[1,2-a]benzimidazole] | < 1000
CCC(CC)c1ccc(Cl)c2nc3n(c12)CCCCN3c1cccnc1OC [Example 55, 10-Chloro-7-(1-ethylpropyl)-1-(2-methoxypyridin-3-yl)-2,3,4,5-tetrahydro-1H-[1,3]diazepino[1,2-a]benzimidazole] | < 1000
CCC(CC)c1ccc(Cl)c2nc3n(c12)CCCCN3c1ncc(N)cc1C [Example 65, 6-[10-Chloro-7-(1-ethylpropyl)-2,3,4,5-tetrahydro-1H-[1,3]diazepino[1,2-a]benzimidazol-1-yl]-5-methylpyridin-3-amine] | < 1000
CCC(=O)c1cccc2nc3n(c12)CCCCN3c1ccc(Cl)cc1Cl [Example 69, 1-[1-(2,4-Dichlorophenyl)-2,3,4,5-tetrahydro-1H-[1,3]diazepino[1,2-a]benzimidazol-7-yl]propan-1-one] | < 1000
CCC(OCCOC)c1cccc2nc3n(c12)CCCN3c1ccc(Cl)cc1Cl (centres unmarked) [Example 94, 1-(2,4-Dichlorophenyl)-6-[1-(2-methoxyethoxy)propyl]-1,2,3,4-tetrahydropyrimido[1,2-a]benzimidazole] | < 1000
CCN(CC)c1ccc(Cl)c2nc3n(c12)CCCCN3c1ccc(Cl)cc1Cl [Example 98, 10-Chloro-1-(2,4-dichlorophenyl)-N,N-diethyl-2,3,4,5-tetrahydro-1H-[1,3]diazepino[1,2-a]benzimidazol-7-amine] | < 1000
O=[N+]([O-])c1ccc(Cl)c2nc3n(c12)CCCN3c1ccc(Cl)cc1Cl [Example 99, 9-Chloro-1-(2,4-dichlorophenyl)-6-nitro-1,2,3,4-tetrahydropyrimido[1,2-a]benzimidazole] | < 1000
CC/C(=N\OC)c1ccc(Cl)c2nc3n(c12)CCCN3c1ccc(Cl)cc1Cl [Example 121, (1E)-1-[9-Chloro-1-(2,4-dichlorophenyl)-1,2,3,4-tetrahydropyrimido[1,2-a]benzimidazol-6-yl]propan-1-one O-methyloxime] | < 1000
CCO/N=C(\CC)c1ccc(Cl)c2nc3n(c12)CCCN3c1ccc(Cl)cc1Cl [Example 123, (1E)-1-[9-Chloro-1-(2,4-dichlorophenyl)-1,2,3,4-tetrahydropyrimido[1,2-a]benzimidazol-6-yl]propan-1-one O-ethyloxime] | < 1000
